Assay results: US20220281848A1, “PYRAZOLE-SUBSTITUTED PYRROLIDINONES AS HERBICIDES” (FMC Corporation, priority 2019, published 2022)

Experiments:
Type in all cases: in vivo
Conditions in all cases: after 13 d
[1] = test system: barnyardgrass (Echinochloa crus-galli, ECHCG); test: Test A pre-emergence, barnyardgrass
Description: (§1) Seeds of corn (Zea mays, ZEAMX), giant foxtail (Setaria faberi, SETFA), barnyardgrass (Echinochloa crus-galli, ECHCG), ivy-leaved morning glory (Ipomoea hederacea, IPOHE), redroot pigweed (Amaranthus retroflexus, AMARE) and velvetleaf (Abutilon theophrasti, ABUTH) were sown in standard soil in pots. After cultivation for one day under controlled conditions in a glasshouse (at 24/16° C., day/night; 14 h light; 65% humidity), the plants were sprayed with an aqueous spray solution derived from the formulation of the technical active ingredient in acetone/water (50:50) solution containing 0.5% Tween 20 (polyoxyethylene sorbitan monolaurate, CAS RN 9005-64-5) to give a final dose of 15.625, 62.5 or 250 g/ha of test compound.
(§2) The test plants were then grown under controlled conditions in a glasshouse (at 24/16° C., day/night; 14 h light; 65% humidity) and watered twice daily. After 13 d the test was evaluated (100=total damage to plant; 0=no damage to plant).

[2] = test system: ivy-leaved morning glory (Ipomoea hederacea, IPOHE); test: Test A post-emergence, ivy-leaved morning glory
Description: as §1, with “IPOHE)),” for “IPOHE),”, “8 d” for “one day”
(§3) The test plants were then grown on under controlled conditions in a glasshouse (at 24/16° C., day/night; 14 h light; 65% humidity) and watered twice daily. After 13 d the test was evaluated (100=total damage to plant; 0=no damage to plant).

[3] = test system: velvetleaf (Abutilon theophrasti, ABUTH); test: Test A post-emergence, velvetleaf
Description: as §1, with “IPOHE)),” for “IPOHE),”, “8 d” for “one day”
as §3

[4] = test system: giant foxtail (Setaria faberi, SETFA); test: Test A post-emergence, giant foxtail
Description: as §1, with “IPOHE)),” for “IPOHE),”, “8 d” for “one day”
as §3

[5] = test system: velvetleaf (Abutilon theophrasti, ABUTH); test: Test A pre-emergence, velvetleaf
Description: as §1, §2

corn (Zea mays, ZEAMX) [6] = test: Test A post-emergence, corn
Description: as §1, with “IPOHE)),” for “IPOHE),”, “8 d” for “one day”
as §3

[7] = test system: ivy-leaved morning glory (Ipomoea hederacea, IPOHE); test: Test A pre-emergence, ivy-leaved morning glory
Description: as §1, §2

[8] = test system: barnyardgrass (Echinochloa crus-galli, ECHCG); test: Test A post-emergence, barnyardgrass
Description: as §1, with “IPOHE)),” for “IPOHE),”, “8 d” for “one day”
as §3

[9] = test system: redroot pigweed (Amaranthus retroflexus, AMARE); test: Test A pre-emergence, redroot pigweed
Description: as §1, §2

[10] = test system: giant foxtail (Setaria faberi, SETFA); test: Test A pre-emergence, giant foxtail
Description: as §1, §2

[11] = test system: redroot pigweed (Amaranthus retroflexus, AMARE); test: Test A post-emergence, redroot pigweed
Description: as §1, with “IPOHE)),” for “IPOHE),”, “8 d” for “one day”
as §3

corn (Zea mays, ZEAMX) [12] = test: Test A pre-emergence, corn
Description: as §1, §2

SMILES	damage to plant (100=total damage; 0=no damage) ECHCG ([1]; Pre-Emergence at 15.625 g/ha)	damage to plant (100=total damage; 0=no damage) ECHCG ([1]; Pre-Emergence at 62.5 g/ha)	damage to plant (100=total damage; 0=no damage) ECHCG ([1]; Pre-Emergence at 250 g/ha)	damage to plant (100=total damage; 0=no damage) IPOHE ([2]; Post-Emergence at 15.625 g/ha)	damage to plant (100=total damage; 0=no damage) IPOHE ([2]; Post-Emergence at 62.5 g/ha)	damage to plant (100=total damage; 0=no damage) IPOHE ([2]; Post-Emergence at 250 g/ha)	damage to plant (100=total damage; 0=no damage) ABUTH ([3]; Post-Emergence at 15.625 g/ha)	damage to plant (100=total damage; 0=no damage) ABUTH ([3]; Post-Emergence at 62.5 g/ha)	damage to plant (100=total damage; 0=no damage) ABUTH ([3]; Post-Emergence at 250 g/ha)	damage to plant (100=total damage; 0=no damage) SETFA ([4]; Post-Emergence at 15.625 g/ha)	damage to plant (100=total damage; 0=no damage) SETFA ([4]; Post-Emergence at 62.5 g/ha)	damage to plant (100=total damage; 0=no damage) SETFA ([4]; Post-Emergence at 250 g/ha)	damage to plant (100=total damage; 0=no damage) ABUTH ([5]; Pre-Emergence at 15.625 g/ha)	damage to plant (100=total damage; 0=no damage) ABUTH ([5]; Pre-Emergence at 62.5 g/ha)	damage to plant (100=total damage; 0=no damage) ABUTH ([5]; Pre-Emergence at 250 g/ha)	damage to plant (100=total damage; 0=no damage) ZEAMX (corn (Zea mays, ZEAMX) [6]; Post-Emergence at 15.625 g/ha)	damage to plant (100=total damage; 0=no damage) ZEAMX (corn (Zea mays, ZEAMX) [6]; Post-Emergence at 62.5 g/ha)	damage to plant (100=total damage; 0=no damage) ZEAMX (corn (Zea mays, ZEAMX) [6]; Post-Emergence at 250 g/ha)	damage to plant (100=total damage; 0=no damage) IPOHE ([7]; Pre-Emergence at 15.625 g/ha)	damage to plant (100=total damage; 0=no damage) IPOHE ([7]; Pre-Emergence at 62.5 g/ha)	also measured
CN1C[C@H](c2nn(C)c3c(Cl)cccc23)[C@@H](C(=O)Nc2cccc(F)c2F)C1=O [Compound 5]	0	20	80	0	0	0	0	0	0	10	50	80	0	0	10	0	0	0	0	0	damage to plant (100=total damage; 0=no damage) IPOHE ([7]; Pre-Emergence at 250 g/ha): 0; damage to plant (100=total damage; 0=no damage) ECHCG ([8]; Post-Emergence at 15.625 g/ha): 0; damage to plant (100=total damage; 0=no damage) ECHCG ([8]; Post-Emergence at 62.5 g/ha): 60; damage to plant (100=total damage; 0=no damage) ECHCG ([8]; Post-Emergence at 250 g/ha): 80; damage to plant (100=total damage; 0=no damage) AMARE ([9]; Pre-Emergence at 15.625 g/ha): 0; damage to plant (100=total damage; 0=no damage) AMARE ([9]; Pre-Emergence at 62.5 g/ha): 0; damage to plant (100=total damage; 0=no damage) AMARE ([9]; Pre-Emergence at 250 g/ha): 30; damage to plant (100=total damage; 0=no damage) SETFA ([10]; Pre-Emergence at 15.625 g/ha): 0; damage to plant (100=total damage; 0=no damage) SETFA ([10]; Pre-Emergence at 62.5 g/ha): 30; damage to plant (100=total damage; 0=no damage) SETFA ([10]; Pre-Emergence at 250 g/ha): 80; damage to plant (100=total damage; 0=no damage) AMARE ([11]; Post-Emergence at 15.625 g/ha): 0; damage to plant (100=total damage; 0=no damage) AMARE ([11]; Post-Emergence at 62.5 g/ha): 0; damage to plant (100=total damage; 0=no damage) AMARE ([11]; Post-Emergence at 250 g/ha): 0; damage to plant (100=total damage; 0=no damage) ZEAMX (corn (Zea mays, ZEAMX) [12]; Pre-Emergence at 15.625 g/ha): 0; damage to plant (100=total damage; 0=no damage) ZEAMX (corn (Zea mays, ZEAMX) [12]; Pre-Emergence at 62.5 g/ha): 0; damage to plant (100=total damage; 0=no damage) ZEAMX (corn (Zea mays, ZEAMX) [12]; Pre-Emergence at 250 g/ha): 0
CN1CC(c2cc(C(F)(F)F)n(C)n2)C(C(=O)Nc2cccc(F)c2OC(F)F)C1=O (racemic) [Compound 23]	70	90	90	0	10	30	0	0	0	60	80	80	0	0	0	0	20	80	0	10	damage to plant (100=total damage; 0=no damage) IPOHE ([7]; Pre-Emergence at 250 g/ha): 20; damage to plant (100=total damage; 0=no damage) ECHCG ([8]; Post-Emergence at 15.625 g/ha): 50; damage to plant (100=total damage; 0=no damage) ECHCG ([8]; Post-Emergence at 62.5 g/ha): 80; damage to plant (100=total damage; 0=no damage) ECHCG ([8]; Post-Emergence at 250 g/ha): 80; damage to plant (100=total damage; 0=no damage) AMARE ([9]; Pre-Emergence at 15.625 g/ha): 0; damage to plant (100=total damage; 0=no damage) AMARE ([9]; Pre-Emergence at 62.5 g/ha): 0; damage to plant (100=total damage; 0=no damage) AMARE ([9]; Pre-Emergence at 250 g/ha): 0; damage to plant (100=total damage; 0=no damage) SETFA ([10]; Pre-Emergence at 15.625 g/ha): 70; damage to plant (100=total damage; 0=no damage) SETFA ([10]; Pre-Emergence at 62.5 g/ha): 90; damage to plant (100=total damage; 0=no damage) SETFA ([10]; Pre-Emergence at 250 g/ha): 90; damage to plant (100=total damage; 0=no damage) AMARE ([11]; Post-Emergence at 15.625 g/ha): 0; damage to plant (100=total damage; 0=no damage) AMARE ([11]; Post-Emergence at 62.5 g/ha): 0; damage to plant (100=total damage; 0=no damage) AMARE ([11]; Post-Emergence at 250 g/ha): 0; damage to plant (100=total damage; 0=no damage) ZEAMX (corn (Zea mays, ZEAMX) [12]; Pre-Emergence at 15.625 g/ha): 10; damage to plant (100=total damage; 0=no damage) ZEAMX (corn (Zea mays, ZEAMX) [12]; Pre-Emergence at 62.5 g/ha): 20; damage to plant (100=total damage; 0=no damage) ZEAMX (corn (Zea mays, ZEAMX) [12]; Pre-Emergence at 250 g/ha): 40
